Data on 2 compounds can be found in patent publication US5932608A, “Melatonin derivative dermocosmetic compositions for whitening/depigmenting the skin” (Societe L'Oreal S.A., priority 1996, dated 1999).

Structures are written as SMILES.

Assay [1] has as its system fungal tyrosinase. Description: in vitro test of inhibition of tyrosinase (dopachrome formation, 475 nm). The assay is classed as biochemical. Particulars: for inhibition of the tyrosinase activity (decrease in the percentage of formation of dopachrome): 25° C., pH 6.5, FIGS. 1 and 2. From the text: According to this test, the amount of dopachrome formed during the reaction sequence for the conversion of tyrosine into melanins was monitored by visible spectrometry at 475 nm. These reactions were catalyzed in vitro by fungal tyrosinase, in the presence of a reductive co-substrate (for example L-dopa in small amounts) in order to initiate the hydroxylation reaction of the L-tyrosine into L-dopa, which was then oxidized catalytically into dopaquinone and then into dopachrome.
The concentration of dopachrome formed over time was thus measured in the presence and absence of the inhibitor. The inhibition effect is expressed by lowering the maximum amount of dopachrome formed (optical density value at 475 nm read at the plateau of the curve) relative to the amount obtained in the absence of inhibitor.
A. 0.1M phosphate buffer pH 6.5 (1% Tween 20)
B. Stock solution of 2×10^-3 M L-tyrosine in A
C. Stock solution of 10^-4 M L-dopa in A
D. Stock solution of fungal tyrosinase containing 2400 units/ml in A
E. Stock solution of the inhibitor at 10^-2 M in A
The solutions C and D were prepared on the day of use.
Reference cell: 3 ml of A
Homogenize and equilibrate at 25° C.
Mixed together rapidly and observed the kinetics by measuring the absorbance as a function of time.

For assay [2], the system named is skin pigmentation. Conditions: exogenous melatonin; D. B. McElhinney et al., J. Invest. Dermatol, 102 (2), 258-9 (1994); cited from earlier work.

Turning to `COc1ccc2[nH]cc(CCNC(C)=O)c2c1` [melatonin, N-acetyl-5-methoxytryptamine], the “inhibition of the tyrosinase activity” value in assay [1] (similar tests, amount of inhibitor not stated) is given as “absence of inhibition”. Further, in assay [2], the “effect on skin pigmentation in man” value was “no effect”.

In the case of `COc1cc2c(CCNC(C)=O)c[nH]c2cc1O` [6-hydroxymelatonin], the “inhibition of the tyrosinase activity (decrease in the percentage of formation of dopachrome)” value in assay [1] (0.1 ml of solution E (inhibitor 10^-2 M stock) in 3 ml test cell) and in assay [1] (0.2 ml of solution E (inhibitor 10^-2 M stock) in 3 ml test cell) was “significant inhibition” throughout.
